According to PubChem BioAssay AID2060488 (Molecular Pharmacology Branch, DTP, NCI, 2025):
Values belong to the compound of their own block, whether it stands above or below them.

Test system: 966289-007-R4-J1-PDC complex spheroid viability
Experiment: Anticancer human tumor 966289-007-R4-J1-PDC patient-derived pancreatic adenocarcinoma cell line growth inhibition [GQUAD]
Details: for IC50: curve of first compound; for viability, T/C: stronger effect = lower value
Excerpt: DNA G-quadruplex Stabilizer Agents in Combinations in Complex Spheroids
A high-throughput screen of multi-cell type tumor spheroids was designed to identify active combinations of DNA G-quadruplex stabilizer agents and targeted small molecules. Complex spheroids include a stromal component modeled by human endothelial cells (HUVEC) and fibroblasts modeled by human mesenchymal stem cells (MSCs). The concentration ranges selected for each drug and investigational agent were based upon clinically achievable concentrations if the clinical Cmax of the agent was known.
Compounds. The drugs and investigational agents: pidnarulex (CX-5461; NSC782164), APTO-253 (NSC789042), BRACO-19 (NSC847499), peposertib (NSC802822), ceralasertib (NSC780249), elimusertib (NSC800525), camonsertib (NSC841442), AZD-1390 (NSC803789), olaparib (NSC753686), talazoparib (NSC767125), ART-558 (NSC835418), sotorasib (NSC818433), MRTX-1133 (NSC836407), SN-38 (NSC673596), topotecan (NSC609699), etoposide (NSC141540), doxorubicin (NSC123127), gemcitabine (NSC613327), 5-fluorouracil (NSC19893), paclitaxel (NSC125973), vemurafenib (NSC761431), panobinostat (NSC761190), R-306465 (JNJ-16241199; NSC773264), adavosertib (NSC754352), TP-3654 (NSC805149), carboplatin (NSC241240), KSQ-4279 (NSC840948), and staurosporine (NSC755774) were obtained from the National Cancer Institute (NCI) Developmental Therapeutics Program Chemical Repository (34). The FDA-approved anticancer drug set is available from the NCI Developmental Therapeutics Program. […] The stock solutions were prepared in dimethyl sulfoxide (DMSO, Sigma-Aldrich, St. Louis, MO, cat. D2650) at 800-fold the tested concentration and stored at -70 degrees C prior to their use. All drugs and investigational agents were tested over a range starting from a high concentration at or near the clinical Cmax and decreasing in half-log increments. If the clinical Cmax for an agent had not been determined, the highest concentration tested was 10 microM.
2.3 Cell Culture. All cells were maintained in an incubator at 37 degrees C and 5% CO2 with 95% humidity. The PDC lines were cultured according to standard operating procedures established by the NCI PDMR. All PDCs were thawed and cultured in Matrigel-coated flasks prepared with a working solution of 1X Ham's F-12 nutrient mix, without supplementation (Invitrogen, cat. 11765054), 100 U/mL penicillin-streptomycin (Invitrogen, cat. 15140122), and 2.5% Matrigel (Corning Inc., cat. 354248) for the first three passages. The 857933-349-R-J2-PDC line was cultured in 6C/Colon 1B media, which includes advanced DMEM/F-12 (Thermo Fisher Scientific, cat. 12634028), 10 mM HEPES (Thermo Fisher Scientific, cat. 15630080), 1X GlutaMAX supplement (Thermo Fisher Scientific, cat. 35050061), 0.1 mg/mL primocin (InvivoGen, cat. ant-pm-2), 10% defined fetal bovine serum, heat inactivated (HyClone Laboratories Inc., cat. SH30070.03HI), 50% L-WRN conditioned media (ATCC, cat. CRL-3276), 1.25 mM N-Acetyl-L-cysteine (Sigma-Aldrich, cat. A9165), 10 mM nicotinamide (Sigma-Aldrich, cat. N0636), 1X B-27 supplement (Thermo Fisher Scientific, cat. 17504044), 1X N-2 supplement (Thermo Fisher Scientific, cat. 17502048), 10 microM Y-27632 dihydrochloride (Tocris Bioscience, cat. 1254), and 50 ng/mL human EGF recombinant protein (Thermo Fisher Scientific, cat. PHG0311). The 485176-168-R4-J1-PDC line was cultured in Panc media, which includes all 6C/Colon 1B media components plus 100 ng/mL human FGF-10 (Thermo Fisher Scientific, cat. 100-26), 500 nM SB-431542 (Selleckchem, cat. S1067), and gastrin (Tocris, cat. 3006).
[…]

[1] = second compound 0.0316 µM, first compound 0.0316 µM
[2] = second compound 0.0316 µM, first compound 0.1 µM
[3] = second compound 0.0316 µM, first compound 0.316 µM
[4] = second compound 0.0316 µM, first compound 1 µM
[5] = second compound 0.0316 µM, first compound 3.16 µM
[6] = second compound 0.0316 µM, first compound 10 µM
[7] = second compound 0.1 µM, first compound 0.0316 µM
[8] = second compound 0.1 µM, first compound 0.1 µM
[9] = second compound 0.1 µM, first compound 0.316 µM
[10] = second compound 0.1 µM, first compound 1 µM
[11] = second compound 0.1 µM, first compound 3.16 µM
[12] = second compound 0.1 µM, first compound 10 µM
[13] = second compound 0.316 µM, first compound 0.0316 µM
[14] = second compound 0.316 µM, first compound 0.1 µM
[15] = second compound 0.316 µM, first compound 0.316 µM
[16] = second compound 0.316 µM, first compound 1 µM
[17] = second compound 0.316 µM, first compound 3.16 µM
[18] = second compound 0.316 µM, first compound 10 µM
[19] = second compound 1 µM, first compound 0.0316 µM
[20] = second compound 1 µM, first compound 0.1 µM
[21] = second compound 1 µM, first compound 0.316 µM
[22] = second compound 1 µM, first compound 1 µM
[23] = second compound 1 µM, first compound 3.16 µM
[24] = second compound 1 µM, first compound 10 µM
[25] = second compound 3.16 µM, first compound 0.0316 µM
[26] = second compound 3.16 µM, first compound 0.1 µM
[27] = second compound 3.16 µM, first compound 0.316 µM
[28] = second compound 3.16 µM, first compound 1 µM
[29] = second compound 3.16 µM, first compound 3.16 µM
[30] = second compound 3.16 µM, first compound 10 µM
[31] = second compound 10 µM, first compound 0.0316 µM
[32] = second compound 10 µM, first compound 0.1 µM
[33] = second compound 10 µM, first compound 0.316 µM
[34] = second compound 10 µM, first compound 1 µM
[35] = second compound 10 µM, first compound 3.16 µM
[36] = second compound 10 µM, first compound 10 µM
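Further: spheroids exposed to the agents for seven days before readout.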
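Wherever viability, T/C is given: percent viability relative to DMSO vehicle control wells taken as 100%.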

IC50 (second compound 0.0316 µM): 0.11 µM
IC50 (second compound 0.1 µM): < 0.0316 µM
IC50 (second compound 0.316 µM): < 0.0316 µM
IC50 (second compound 1 µM): < 0.0316 µM
IC50 (second compound 3.16 µM): < 0.0316 µM
IC50 (second compound 10 µM): < 0.0316 µM
Compound: COc1cc(C2c3cc4c(cc3C(OC3OC5COC(C)OC5C(O)C3O)C3COC(=O)C23)OCO4)cc(OC)c1O (centres undefined) + Cc1cnc(CNC(=O)c2c(=O)c3ccc(N4CCCN(C)CC4)nc3n3c2sc2ccccc23)cn1
viability, T/C [1]: 88%
viability, T/C [2]: 53.8%
viability, T/C [3]: 10.1%
viability, T/C [4]: 2.94%
viability, T/C [5]: 2.18%
viability, T/C [6]: 0.59%
viability, T/C [7]: 29.7%
viability, T/C [8]: 19.7%
viability, T/C [9]: 8.71%
viability, T/C [10]: 3.16%
viability, T/C [11]: 1.36%
viability, T/C [12]: 0.71%
viability, T/C [13]: 10.3%
viability, T/C [14]: 9.3%
viability, T/C [15]: 5.22%
viability, T/C [16]: 3.25%
viability, T/C [17]: 1.25%
viability, T/C [18]: 1.38%
viability, T/C [19]: 6.49%
viability, T/C [20]: 6.05%
viability, T/C [21]: 4.38%
viability, T/C [22]: 2.66%
viability, T/C [23]: 1.27%
viability, T/C [24]: 0.48%
viability, T/C [25]: 4.76%
viability, T/C [26]: 4.96%
viability, T/C [27]: 2.85%
viability, T/C [28]: 0.6%
viability, T/C [29]: 0.46%
viability, T/C [30]: 0.09%
viability, T/C [31]: 0.03%
viability, T/C [32]: 0.07%
viability, T/C [33]: 0.09%
viability, T/C [34]: 0.06%
viability, T/C [35]: 0.12%
viability, T/C [36]: 0.12%

Compound: CCCS(=O)(=O)Nc1ccc(F)c(C(=O)c2c[nH]c3ncc(-c4ccc(Cl)cc4)cc23)c1F + CN(C)c1ccc(Nc2c3ccc(NC(=O)CCN4CCCC4)cc3nc3cc(NC(=O)CCN4CCCC4)ccc23)cc1
IC50 (second compound 0.0316 µM): 7.34 µM
IC50 (second compound 0.1 µM): 7.34 µM
IC50 (second compound 0.316 µM): 7.41 µM
IC50 (second compound 1 µM): 6.87 µM
IC50 (second compound 3.16 µM): 5.67 µM
IC50 (second compound 10 µM): 2.03 µM
viability, T/C [1]: 99.4%
viability, T/C [2]: 97.3%
viability, T/C [3]: 109%
viability, T/C [4]: 103%
viability, T/C [5]: 104%
viability, T/C [6]: 30.5%
viability, T/C [7]: 100%
viability, T/C [8]: 101%
viability, T/C [9]: 99.3%
viability, T/C [10]: 102%
viability, T/C [11]: 107%
viability, T/C [12]: 30.8%
viability, T/C [13]: 100%
viability, T/C [14]: 105%
viability, T/C [15]: 103%
viability, T/C [16]: 106%
viability, T/C [17]: 102%
viability, T/C [18]: 31.8%
viability, T/C [19]: 92.2%
viability, T/C [20]: 104%
viability, T/C [21]: 109%
viability, T/C [22]: 108%
viability, T/C [23]: 103%
viability, T/C [24]: 24.4%
viability, T/C [25]: 99.8%
viability, T/C [26]: 99.9%
viability, T/C [27]: 110%
viability, T/C [28]: 104%
viability, T/C [29]: 93.4%
viability, T/C [30]: 7.98%
viability, T/C [31]: 103%
viability, T/C [32]: 102%
viability, T/C [33]: 106%
viability, T/C [34]: 103%
viability, T/C [35]: 17.2%
viability, T/C [36]: 0.53%
